Experimental data from PubChem BioAssay AID2060621 (Molecular Pharmacology Branch, DTP, NCI, 2025).

Test system: 324938-238-R-J1-PDC complex spheroids viability
Experiment: Anticancer human tumor 324938-238-R-J1-PDC patient-derived bladder carcinoma cell line growth inhibition [CLK]
Conditions: for IC50: curve of first compound; for viability, T/C: stronger effect = lower value
How it was run: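 Multi-cell-type spheroids combined patient-derived tumor cells with HUVEC endothelial cells and human mesenchymal stem cells. Paired agents were dosed in half-log steps down from about clinical Cmax, or from 10 microM where Cmax was unknown.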
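Further: viability read after seven days of drug exposure.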
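Wherever viability, T/C is given: 100% = DMSO vehicle control wells.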

## CC(C)CC(NC(=O)C(Cc1ccccc1)NC(=O)c1cnccn1)B(O)O (centres undefined) + CN1CCN(c2cc(C(=O)Nc3cc4cc(-c5cnn(C)c5)ccc4cn3)ccn2)CC1
Second compound 0.0316 µM
  IC50: 1.29 nM
Second compound 0.1 µM
  IC50: < 0.949 nM
Second compound 0.316 µM
  IC50: < 0.949 nM
Second compound 1 µM
  IC50: < 0.949 nM
Second compound 3.16 µM
  IC50: < 0.949 nM
Second compound 10 µM
  IC50: < 0.949 nM
Second compound 0.0316 µM, first compound 0.000949 µM
  viability, T/C: 67%
Second compound 0.0316 µM, first compound 0.003 µM
  viability, T/C: 2.89%
Second compound 0.0316 µM, first compound 0.00949 µM
  viability, T/C: 0.33%
Second compound 0.0316 µM, first compound 0.03 µM
  viability, T/C: 0.33%
Second compound 0.0316 µM, first compound 0.0949 µM
  viability, T/C: 0.22%
Second compound 0.0316 µM, first compound 0.3 µM
  viability, T/C: 0.18%
Second compound 0.1 µM, first compound 0.000949 µM
  viability, T/C: 46.9%
Second compound 0.1 µM, first compound 0.003 µM
  viability, T/C: 2.21%
Second compound 0.1 µM, first compound 0.00949 µM
  viability, T/C: 0.38%
Second compound 0.1 µM, first compound 0.03 µM
  viability, T/C: 0.33%
Second compound 0.1 µM, first compound 0.0949 µM
  viability, T/C: 0.18%
Second compound 0.1 µM, first compound 0.3 µM
  viability, T/C: 0.32%
Second compound 0.316 µM, first compound 0.000949 µM
  viability, T/C: 11.1%
Second compound 0.316 µM, first compound 0.003 µM
  viability, T/C: 0.71%
Second compound 0.316 µM, first compound 0.00949 µM
  viability, T/C: 0.31%
Second compound 0.316 µM, first compound 0.03 µM
  viability, T/C: 0.2%
Second compound 0.316 µM, first compound 0.0949 µM
  viability, T/C: 0.15%
Second compound 0.316 µM, first compound 0.3 µM
  viability, T/C: 0.17%
Second compound 1 µM, first compound 0.000949 µM
  viability, T/C: 0.28%
Second compound 1 µM, first compound 0.003 µM
  viability, T/C: 0.27%
Second compound 1 µM, first compound 0.00949 µM
  viability, T/C: 0.18%
Second compound 1 µM, first compound 0.03 µM
  viability, T/C: 0.16%
Second compound 1 µM, first compound 0.0949 µM
  viability, T/C: 0.44%
Second compound 1 µM, first compound 0.3 µM
  viability, T/C: 0.22%
Second compound 3.16 µM, first compound 0.000949 µM
  viability, T/C: 0.23%
Second compound 3.16 µM, first compound 0.003 µM
  viability, T/C: 0.24%
Second compound 3.16 µM, first compound 0.00949 µM
  viability, T/C: 0.24%
Second compound 3.16 µM, first compound 0.03 µM
  viability, T/C: 0.1%
Second compound 3.16 µM, first compound 0.0949 µM
  viability, T/C: 0.18%
Second compound 3.16 µM, first compound 0.3 µM
  viability, T/C: 0.17%
Second compound 10 µM, first compound 0.000949 µM
  viability, T/C: 0.71%
Second compound 10 µM, first compound 0.003 µM
  viability, T/C: 0.21%
Second compound 10 µM, first compound 0.00949 µM
  viability, T/C: 0.18%
Second compound 10 µM, first compound 0.03 µM
  viability, T/C: 0.22%
Second compound 10 µM, first compound 0.0949 µM
  viability, T/C: 0.26%
Second compound 10 µM, first compound 0.3 µM
  viability, T/C: 0.25%

## O=C(c1cc(Cc2n[nH]c(=O)c3ccccc23)ccc1F)N1CCN(C(=O)C2CC2)CC1 + CN1CCN(c2cc(C(=O)Nc3cc4cc(-c5cnn(C)c5)ccc4cn3)ccn2)CC1
Second compound 0.0316 µM
  IC50: 4050 nM
Second compound 0.1 µM
  IC50: < 31.6 nM
Second compound 0.316 µM
  IC50: < 31.6 nM
Second compound 1 µM
  IC50: < 31.6 nM
Second compound 3.16 µM
  IC50: < 31.6 nM
Second compound 10 µM
  IC50: < 31.6 nM
Second compound 0.0316 µM, first compound 0.0316 µM
  viability, T/C: 76.9%
Second compound 0.0316 µM, first compound 0.1 µM
  viability, T/C: 76.8%
Second compound 0.0316 µM, first compound 0.316 µM
  viability, T/C: 65.2%
Second compound 0.0316 µM, first compound 1 µM
  viability, T/C: 70.5%
Second compound 0.0316 µM, first compound 3.16 µM
  viability, T/C: 55.5%
Second compound 0.0316 µM, first compound 10 µM
  viability, T/C: 29.6%
Second compound 0.1 µM, first compound 0.0316 µM
  viability, T/C: 46.9%
Second compound 0.1 µM, first compound 0.1 µM
  viability, T/C: 50.8%
Second compound 0.1 µM, first compound 0.316 µM
  viability, T/C: 42.5%
Second compound 0.1 µM, first compound 1 µM
  viability, T/C: 49.2%
Second compound 0.1 µM, first compound 3.16 µM
  viability, T/C: 36.4%
Second compound 0.1 µM, first compound 10 µM
  viability, T/C: 19.4%
Second compound 0.316 µM, first compound 0.0316 µM
  viability, T/C: 20.6%
Second compound 0.316 µM, first compound 0.1 µM
  viability, T/C: 24.1%
Second compound 0.316 µM, first compound 0.316 µM
  viability, T/C: 19.9%
Second compound 0.316 µM, first compound 1 µM
  viability, T/C: 19.9%
Second compound 0.316 µM, first compound 3.16 µM
  viability, T/C: 18.9%
Second compound 0.316 µM, first compound 10 µM
  viability, T/C: 16.4%
Second compound 1 µM, first compound 0.0316 µM
  viability, T/C: 1.69%
Second compound 1 µM, first compound 0.1 µM
  viability, T/C: 1.71%
Second compound 1 µM, first compound 0.316 µM
  viability, T/C: 1.98%
Second compound 1 µM, first compound 1 µM
  viability, T/C: 1.94%
Second compound 1 µM, first compound 3.16 µM
  viability, T/C: 2.27%
Second compound 1 µM, first compound 10 µM
  viability, T/C: 1.74%
Second compound 3.16 µM, first compound 0.0316 µM
  viability, T/C: 0.26%
Second compound 3.16 µM, first compound 0.1 µM
  viability, T/C: 0.21%
Second compound 3.16 µM, first compound 0.316 µM
  viability, T/C: 0.25%
Second compound 3.16 µM, first compound 1 µM
  viability, T/C: 0.1%
Second compound 3.16 µM, first compound 3.16 µM
  viability, T/C: 0.36%
Second compound 3.16 µM, first compound 10 µM
  viability, T/C: 0.49%
Second compound 10 µM, first compound 0.0316 µM
  viability, T/C: 0.11%
Second compound 10 µM, first compound 0.1 µM
  viability, T/C: 0.21%
Second compound 10 µM, first compound 0.316 µM
  viability, T/C: 0.24%
Second compound 10 µM, first compound 1 µM
  viability, T/C: 0.17%
Second compound 10 µM, first compound 3.16 µM
  viability, T/C: 0.26%
Second compound 10 µM, first compound 10 µM
  viability, T/C: 0.28%
